28 compounds from patent US20240199558A1, “2,4,6-TRISUBSTITUTED 1,3,5-TRIAZINES AS MODULATORS OF CX3CR1” (ASTRAZENECA AB, priority 2022, published 2024) can be followed below.

SMILES strings stand for the structures.

In general, IC50 refers to the concentration at which inhibition is half-maximal. Read a high IC50 as weaker potency.

T1 sequence (P49238 whole entry): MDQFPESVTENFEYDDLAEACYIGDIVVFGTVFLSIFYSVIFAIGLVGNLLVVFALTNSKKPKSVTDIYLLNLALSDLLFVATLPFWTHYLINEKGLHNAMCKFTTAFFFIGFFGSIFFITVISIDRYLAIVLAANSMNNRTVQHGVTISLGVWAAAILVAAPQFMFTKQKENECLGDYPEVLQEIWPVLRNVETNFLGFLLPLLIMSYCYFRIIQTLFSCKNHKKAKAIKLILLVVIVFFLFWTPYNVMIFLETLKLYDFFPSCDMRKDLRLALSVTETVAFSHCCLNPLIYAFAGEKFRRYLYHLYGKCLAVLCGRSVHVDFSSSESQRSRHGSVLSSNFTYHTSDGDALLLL

In the first assay the target is T1, CX3CR1 (Homo sapiens (Human), UniProt P49238). In words: hCX3CR1 [3H]-AZD8797 competitive binding assay (filter). Conditions: CHO-hCX3CR1 membranes, 2 nM [3H]-AZD8797. In short, it runs like this:
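Filtration radioligand displacement assay: competitor titrations compete with 2 nM [3H]-AZD8797 for membranes from CHO cells expressing hCX3CR1 (9 μg/well). Incubation was 2 h at room temperature in HEPES pH 7.4 with MgCl2, CaCl2, 0.5% BSA and 1% DMSO. Filters were washed with ice-cold high-salt (500 mM NaCl) buffer, and retained radioactivity was scintillation-counted.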
For the compound `CC(C)C[C@H](CO)Nc1nc(C[C@@H](C)c2ccc(Cl)c(Cl)c2)nc(NS(C)(=O)=O)n1` (single isomer, unassigned) [Example 2, N-(4-((S*)-2-(3,4-Dichlorophenyl)propyl)-6-(((R)-1-hydroxy-4-methylpentan-2-yl)amino)-1,3,5-triazin-2-yl)methanesulfonamide], the concentration for half-maximal inhibition (IC50) is 361 nM. The same measure, in the same setting: to `CC(C)C[C@H](CO)Nc1nc(CC(C)c2ccc(CO)c(F)c2)nc(NS(C)(=O)=O)n1` (stereo partly drawn) [Example 133, N-(4-(2-(3-Fluoro-4-(hydroxymethyl)phenyl)propyl)-6-(((R)-1-hydroxy-4-methylpentan-2-yl)amino)-1,3,5-triazin-2-yl)methanesulfonamide] belongs 26 nM; to `CC(C)C[C@H](CO)Nc1nc(CC(C)c2cnc3ccccc3c2)nc(NS(C)(=O)=O)n1` (stereo partly drawn) [Example 134, N-(4-(((R)-1-Hydroxy-4-methylpentan-2-yl)amino)-6-(2-(quinolin-3-yl)propyl)-1,3,5-triazin-2-yl)methanesulfonamide], 203 nM; to `CC(C)C[C@H](CO)Nc1nc(CC(C)c2cccc(F)c2O)nc(NS(C)(=O)=O)n1` (stereo partly drawn) [Example 135, N-(4-(2-(3-Fluoro-2-hydroxyphenyl)propyl)-6-(((R)-1-hydroxy-4-methylpentan-2-yl)amino)-1,3,5-triazin-2-yl)methanesulfonamide], 104 nM.

In turn, `CC(C)C[C@H](CO)Nc1nc(CC(C)c2ccc(N)c(F)c2)nc(NS(C)(=O)=O)n1` (stereo partly drawn) [Example 136, N-(4-(2-(4-Amino-3-fluorophenyl)propyl)-6-(((R)-1-hydroxy-4-methylpentan-2-yl)amino)-1,3,5-triazin-2-yl)methanesulfonamide] yielded an IC50 of 16 nM. With `CC(C)C[C@H](CO)Nc1nc(CC(C)c2cccc(Cl)c2O)nc(NS(C)(=O)=O)n1` (stereo partly drawn) [Example 137, N-(4-(2-(3-Chloro-2-hydroxyphenyl)propyl)-6-(((R)-1-hydroxy-4-methylpentan-2-yl)amino)-1,3,5-triazin-2-yl)methanesulfonamide], the IC50 amounted to 321 nM.

`CC(C)C[C@H](CO)Nc1nc(CC(C)c2ccc(CCN3CCOCC3)cc2)nc(NS(C)(=O)=O)n1` (stereo partly drawn) [Example 138, N-(4-(((R)-1-Hydroxy-4-methylpentan-2-yl)amino)-6-(2-(4-(2-morpholinoethyl)phenyl)propyl)-1,3,5-triazin-2-yl)methanesulfonamide] registered a 50% inhibitory concentration (IC50) of 119 nM. Regarding `COc1cccc(C(C)Cc2nc(N[C@@H](CO)CC(C)C)nc(NS(C)(=O)=O)n2)c1O` (stereo partly drawn) [Example 139, N-(4-(2-(2-Hydroxy-3-methoxyphenyl)propyl)-6-(((R)-1-hydroxy-4-methylpentan-2-yl)amino)-1,3,5-triazin-2-yl)methanesulfonamide], the IC50 worked out at 469 nM. `CC(C)C[C@H](CO)Nc1nc(CC(C)c2ccc(OC(C)C)c(F)c2)nc(NS(C)(=O)=O)n1` (stereo partly drawn) [Example 140, N-(4-(2-(3-Fluoro-4-isopropoxyphenyl)propyl)-6-(((R)-1-hydroxy-4-methylpentan-2-yl)amino)-1,3,5-triazin-2-yl)methanesulfonamide] registered a half-maximal inhibitory concentration (IC50) of 175 nM. Still for that read-out and setting: to `CC(C)C[C@H](CO)Nc1nc(CC(C)c2ccc(C#N)c(F)c2)nc(NS(C)(=O)=O)n1` (stereo partly drawn) [Example 141, N-(4-(2-(4-Cyano-3-fluorophenyl)propyl)-6-(((R)-1-hydroxy-4-methylpentan-2-yl)amino)-1,3,5-triazin-2-yl)methanesulfonamide] belongs 173 nM; to `CC(C)C[C@H](CO)Nc1nc(CC(C)c2ccc(F)cc2O)nc(NS(C)(=O)=O)n1` (stereo partly drawn) [Example 142, N-(4-(2-(4-Fluoro-2-hydroxyphenyl)propyl)-6-(((R)-1-hydroxy-4-methylpentan-2-yl)amino)-1,3,5-triazin-2-yl)methanesulfonamide], 110 nM.

As to `CC(C)C[C@H](CO)Nc1nc(CC(c2ccccc2)C(F)(F)F)nc(NS(C)(=O)=O)n1` (stereo partly drawn) [Example 151, N-(4-(((R)-1-Hydroxy-4-methylpentan-2-yl)amino)-6-(3,3,3-trifluoro-2-phenylpropyl)-1,3,5-triazin-2-yl)methanesulfonamide], the IC50 stood at 493 nM. On the same count and under the same terms, in the case of `CC(C)C[C@H](CO)Nc1nc(CC(C)(C)c2ccccc2)nc(NS(C)(=O)=O)n1` [Example 152, (R)—N-(4-((1-Hydroxy-4-methylpentan-2-yl)amino)-6-(2-methyl-2-phenylpropyl)-1,3,5-triazin-2-yl)methanesulfonamide] it was above 8010 nM; in that of `CC(C)C[C@H](CO)Nc1nc(CCC(F)(F)c2ccc(Cl)cc2)nc(NS(C)(=O)=O)n1` [Example 153, (R)—N-(4-(3-(4-Chlorophenyl)-3,3-difluoropropyl)-6-((1-hydroxy-4-methylpentan-2-yl)amino)-1,3,5-triazin-2-yl)methanesulfonamide], above 10000 nM. As for `Cc1ccc(F)c(C(C)Cc2nc(N[C@@H](CO)CC(C)C)nc(NS(C)(=O)=O)n2)n1` (stereo partly drawn) [Example 155, N-(4-(2-(3-Fluoro-6-methylpyridin-2-yl)propyl)-6-(((R)-1-hydroxy-4-methylpentan-2-yl)amino)-1,3,5-triazin-2-yl)methanesulfonamide], the IC50 amounted to 1550 nM. Turning to `CC(C)C[C@H](CO)Nc1nc(CC(C)c2ccc(C(=O)N3CCOCC3)cc2)nc(NS(C)(=O)=O)n1` (stereo partly drawn) [Example 156, N-(4-(((R)-1-Hydroxy-4-methylpentan-2-yl)amino)-6-(2-(4-(morpholine-4-carbonyl)phenyl)propyl)-1,3,5-triazin-2-yl)methanesulfonamide], the 50% inhibitory concentration (IC50) worked out at 1960 nM. The same measure, in the same setting: to `CC(C)C[C@H](CO)Nc1nc(CC(C)c2cccc(-c3ccccc3)c2)nc(NS(C)(=O)=O)n1` (some centres unmarked) [Example 157] belongs 4350 nM; to `CC(C)C[C@H](CO)Nc1nc(CC(C)c2cccc(C3(O)CC3)c2)nc(NS(C)(=O)=O)n1` (stereo partly drawn) [Example 158, N-(4-(((R)-1-Hydroxy-4-methylpentan-2-yl)amino)-6-(2-(3-(1-hydroxycyclopropyl)phenyl)propyl)-1,3,5-triazin-2-yl)methanesulfonamide], 2700 nM. Still for that read-out and setting: to `CC(C)C[C@H](CO)Nc1nc(CC(C)c2ccc(OC(C)C)nc2)nc(NS(C)(=O)=O)n1` (stereo partly drawn) [Example 159, N-(4-(((R)-1-Hydroxy-4-methylpentan-2-yl)amino)-6-(2-(6-isopropoxypyridin-3-yl)propyl)-1,3,5-triazin-2-yl)methanesulfonamide] belongs 264 nM; to `COc1c(F)cccc1C(C)Cc1nc(N[C@@H](CO)CC(C)C)nc(NS(C)(=O)=O)n1` (stereo partly drawn) [Example 160, N-(4-(2-(3-Fluoro-2-methoxyphenyl)propyl)-6-(((R)-1-hydroxy-4-methylpentan-2-yl)amino)-1,3,5-triazin-2-yl)methanesulfonamide], 350 nM. Still for that read-out and setting: to `CC(C)C[C@H](CO)Nc1nc(CC(C)c2ccc(F)c(C#N)c2)nc(NS(C)(=O)=O)n1` (some centres unmarked) [Example 161] belongs 1250 nM. `COc1cc(F)ccc1C(C)Cc1nc(N[C@@H](CO)CC(C)C)nc(NS(C)(=O)=O)n1` (stereo partly drawn) [Example 162, N-(4-(2-(4-Fluoro-2-methoxyphenyl)propyl)-6-(((R)-1-hydroxy-4-methylpentan-2-yl)amino)-1,3,5-triazin-2-yl)methanesulfonamide] yielded an IC50 of 1320 nM. Take `CC(C)C[C@H](CO)Nc1nc(CC(C)c2cccc3c2NC(=O)C3)nc(NS(C)(=O)=O)n1` (stereo partly drawn) [Example 163, N-(4-(((R)-1-Hydroxy-4-methylpentan-2-yl)amino)-6-(2-(2-oxoindolin-7-yl)propyl)-1,3,5-triazin-2-yl)methanesulfonamide]: the half-maximal inhibitory concentration (IC50) stood at 5230 nM. In turn, `COc1cccc(C(C)Cc2nc(N[C@@H](CO)CC(C)C)nc(NS(C)(=O)=O)n2)n1` (stereo partly drawn) [Example 166, N-(4-(((R)-1-Hydroxy-4-methylpentan-2-yl)amino)-6-(2-(6-methoxypyridin-2-yl)propyl)-1,3,5-triazin-2-yl)methanesulfonamide] displayed an IC50 of 726 nM. Same read-out and setting: in the case of `CCOc1ccc(C(C)Cc2nc(N[C@@H](CO)CC(C)C)nc(NS(C)(=O)=O)n2)cn1` (stereo partly drawn) [Example 167, N-(4-(2-(6-Ethoxypyridin-3-yl)propyl)-6-(((R)-1-hydroxy-4-methylpentan-2-yl)amino)-1,3,5-triazin-2-yl)methanesulfonamide] it was 310 nM; in that of `CC(C)C[C@H](CO)Nc1nc(CC(C)c2ccc(C#N)c(Cl)c2)nc(NS(C)(=O)=O)n1` (stereo partly drawn) [Example 169, N-(4-(2-(3-Chloro-4-cyanophenyl)propyl)-6-(((R)-1-hydroxy-4-methylpentan-2-yl)amino)-1,3,5-triazin-2-yl)methanesulfonamide], 815 nM.

For another assay, the target named is T1, CX3CR1. In words: hCX3CR1 [125I]-CX3CL1 displacement binding (SPA). The following applies: CHO-hCX3CR1 membranes, [125I]-CX3CL1, SPA beads. Here is the method: hCX3CR1 [^125I]-CX3CL1 Displacement Binding (SPA)
CHO-hCX3CR1 membranes (3 μg per well) together with […] [^125I]-CX3CL1 (Perkin Elmer) and different concentrations of competitor compound were incubated together with 400 μg/well WGA coated PVT SPA beads (Perkin Elmer) in 50 mM HEPES (pH 7.4), 10 mM MgCl2, 1 mM EDTA and 0.1% Gelatin in a Greiner polystyrene flat-bottom 384-well plate. The plate was incubated for 20 h at room temperature before the radioactivity was measured using a MicroBeta Trilux reader (PerkinElmer). The DMSO concentration was held constant at 1%.
On to `CC(C)C[C@H](CO)Nc1nc(C[C@H](C)c2ccc(Cl)c(Cl)c2)nc(NS(C)(=O)=O)n1` (relative stereo) [Example 1, N-(4-((R*)-2-(3,4-Dichlorophenyl)propyl)-6-(((R)-1-hydroxy-4-methylpentan-2-yl)amino)-1,3,5-triazin-2-yl)methanesulfonamide], for which the concentration for half-maximal inhibition (IC50) worked out at 1970 nM. For the compound `CC(C)C[C@H](CO)Nc1nc(C[C@@H](C)c2ccc(Cl)c(Cl)c2)nc(NS(C)(=O)=O)n1` (single isomer, unassigned) [Example 2, N-(4-((S*)-2-(3,4-Dichlorophenyl)propyl)-6-(((R)-1-hydroxy-4-methylpentan-2-yl)amino)-1,3,5-triazin-2-yl)methanesulfonamide], the half-maximal inhibitory concentration (IC50) was found to be 362 nM. On the same count and under the same terms, to `CC(C)C[C@H](CO)Nc1nc(C[C@H](C)c2ccccc2)nc(NS(C)(=O)=O)n1` (single isomer, unassigned) [Example 147, N-(4-(((R)-1-Hydroxy-4-methylpentan-2-yl)amino)-6-((S*)-2-phenylpropyl)-1,3,5-triazin-2-yl)methanesulfonamide] belongs above 10000 nM.
